Assays:
Type in all cases: functional
Klebsiella aerogenes [1] = test: Antimicrobial activity against multidrug resistant Enterobacter aerogenes isolate 13 by broth dilution method in presence of 26.3 mg/L efflux pump inhibitor phenylalanine-arginine-beta-naphthylamide
Klebsiella pneumoniae [2] = test: Antimicrobial activity against multidrug resistant Klebsiella pneumoniae isolate 15 by broth dilution method
Klebsiella aerogenes [3] = test: Antimicrobial activity against multidrug resistant Enterobacter aerogenes isolate 14 by broth dilution method in presence of 26.3 mg/L efflux pump inhibitor phenylalanine-arginine-beta-naphthylamide
Klebsiella pneumoniae [4] = test: Antimicrobial activity against multidrug resistant Klebsiella pneumoniae isolate 2 by broth dilution method in presence of 26.3 mg/L efflux pump inhibitor phenylalanine-arginine-beta-naphthylamide
Klebsiella aerogenes [5] = test: Antimicrobial activity against multidrug resistant Enterobacter aerogenes isolate 8 by broth dilution method
Klebsiella aerogenes [6] = test: Antimicrobial activity against multidrug resistant Enterobacter aerogenes isolate 18 by broth dilution method
Klebsiella aerogenes [7] = test: Antimicrobial activity against multidrug resistant Enterobacter aerogenes isolate 12 by broth dilution method
Klebsiella aerogenes [8] = test: Antimicrobial activity against multidrug resistant Enterobacter aerogenes isolate 1 by broth dilution method in presence of 26.3 mg/L efflux pump inhibitor phenylalanine-arginine-beta-naphthylamide
Klebsiella aerogenes [9] = test: Antimicrobial activity against multidrug resistant Enterobacter aerogenes isolate 7 by broth dilution method
Klebsiella aerogenes [10] = test: Antimicrobial activity against multidrug resistant Enterobacter aerogenes isolate 7 by broth dilution method in presence of 26.3 mg/L efflux pump inhibitor phenylalanine-arginine-beta-naphthylamide
Klebsiella pneumoniae [11] = test: Antimicrobial activity against multidrug resistant Klebsiella pneumoniae isolate 5 by broth dilution method in presence of 26.3 mg/L efflux pump inhibitor phenylalanine-arginine-beta-naphthylamide
Klebsiella aerogenes [12] = test: Antimicrobial activity against multidrug resistant Enterobacter aerogenes isolate 8 by broth dilution method in presence of 26.3 mg/L efflux pump inhibitor phenylalanine-arginine-beta-naphthylamide
Klebsiella aerogenes [13] = test: Antimicrobial activity against multidrug resistant Enterobacter aerogenes isolate 11 by broth dilution method
Klebsiella aerogenes [14] = test: Antimicrobial activity against multidrug resistant Enterobacter aerogenes isolate 25 by broth dilution method
Klebsiella pneumoniae [15] = test: Antimicrobial activity against multidrug resistant Klebsiella pneumoniae isolate 12 by broth dilution method
Klebsiella aerogenes [16] = test: Antimicrobial activity against multidrug resistant Enterobacter aerogenes isolate 19 by broth dilution method in presence of 26.3 mg/L efflux pump inhibitor phenylalanine-arginine-beta-naphthylamide
Klebsiella aerogenes [17] = test: Antimicrobial activity against multidrug resistant Enterobacter aerogenes isolate 16 by broth dilution method
Klebsiella aerogenes [18] = test: Antimicrobial activity against multidrug resistant Enterobacter aerogenes isolate 4 by broth dilution method in presence of 26.3 mg/L efflux pump inhibitor phenylalanine-arginine-beta-naphthylamide
Klebsiella pneumoniae [19] = test: Antimicrobial activity against multidrug resistant Klebsiella pneumoniae isolate 7 by broth dilution method in presence of 26.3 mg/L efflux pump inhibitor phenylalanine-arginine-beta-naphthylamide
Klebsiella aerogenes [20] = test: Antimicrobial activity against multidrug resistant Enterobacter aerogenes isolate 9 by broth dilution method in presence of 26.3 mg/L efflux pump inhibitor phenylalanine-arginine-beta-naphthylamide
Klebsiella aerogenes [21] = test: Antimicrobial activity against multidrug resistant Enterobacter aerogenes isolate 17 by broth dilution method
Klebsiella aerogenes [22] = test: Antimicrobial activity against multidrug resistant Enterobacter aerogenes isolate 6 by broth dilution method in presence of 26.3 mg/L efflux pump inhibitor phenylalanine-arginine-beta-naphthylamide
Klebsiella aerogenes [23] = test: Antimicrobial activity against multidrug resistant Enterobacter aerogenes isolate 22 by broth dilution method
Klebsiella pneumoniae [24] = test: Antimicrobial activity against multidrug resistant Klebsiella pneumoniae isolate 9 by broth dilution method
Klebsiella pneumoniae [25] = test: Antimicrobial activity against multidrug resistant Klebsiella pneumoniae isolate 1 by broth dilution method in presence of 26.3 mg/L efflux pump inhibitor phenylalanine-arginine-beta-naphthylamide
Klebsiella pneumoniae [26] = test: Antimicrobial activity against multidrug resistant Klebsiella pneumoniae isolate 8 by broth dilution method in presence of 26.3 mg/L efflux pump inhibitor phenylalanine-arginine-beta-naphthylamide
Klebsiella pneumoniae [27] = test: Antimicrobial activity against multidrug resistant Klebsiella pneumoniae isolate 3 by broth dilution method in presence of 26.3 mg/L efflux pump inhibitor phenylalanine-arginine-beta-naphthylamide
Klebsiella aerogenes [28] = test: Antimicrobial activity against multidrug resistant Enterobacter aerogenes isolate 17 by broth dilution method in presence of 26.3 mg/L efflux pump inhibitor phenylalanine-arginine-beta-naphthylamide
Klebsiella pneumoniae [29] = test: Antimicrobial activity against multidrug resistant Klebsiella pneumoniae ATCC 11296 by broth dilution method in presence of 26.3 mg/L efflux pump inhibitor phenylalanine-arginine-beta-naphthylamide
Klebsiella aerogenes [30] = test: Antimicrobial activity against multidrug resistant Enterobacter aerogenes isolate 27 by broth dilution method
Klebsiella pneumoniae [31] = test: Antimicrobial activity against multidrug resistant Klebsiella pneumoniae isolate 5 by broth dilution method
Klebsiella pneumoniae [32] = test: Antimicrobial activity against multidrug resistant Klebsiella pneumoniae isolate 13 by broth dilution method in presence of 26.3 mg/L efflux pump inhibitor phenylalanine-arginine-beta-naphthylamide
Klebsiella aerogenes [33] = test: Antimicrobial activity against multidrug resistant Enterobacter aerogenes isolate 11 by broth dilution method in presence of 26.3 mg/L efflux pump inhibitor phenylalanine-arginine-beta-naphthylamide
Klebsiella pneumoniae [34] = test: Antimicrobial activity against multidrug resistant Klebsiella pneumoniae isolate 7 by broth dilution method
Klebsiella aerogenes [35] = test: Antimicrobial activity against multidrug resistant Enterobacter aerogenes isolate 20 by broth dilution method
Klebsiella pneumoniae [36] = test: Antimicrobial activity against multidrug resistant Klebsiella pneumoniae isolate 9 by broth dilution method in presence of 26.3 mg/L efflux pump inhibitor phenylalanine-arginine-beta-naphthylamide
Klebsiella aerogenes [37] = test: Antimicrobial activity against multidrug resistant Enterobacter aerogenes isolate 26 by broth dilution method
Klebsiella aerogenes [38] = test: Antimicrobial activity against multidrug resistant Enterobacter aerogenes isolate 5 by broth dilution method
Klebsiella aerogenes [39] = test: Antimicrobial activity against multidrug resistant Enterobacter aerogenes isolate 26 by broth dilution method in presence of 26.3 mg/L efflux pump inhibitor phenylalanine-arginine-beta-naphthylamide
Klebsiella aerogenes [40] = test: Antimicrobial activity against multidrug resistant Enterobacter aerogenes isolate 23 by broth dilution method
Klebsiella aerogenes [41] = test: Antimicrobial activity against multidrug resistant Enterobacter aerogenes isolate 3 by broth dilution method

Measured: MIC

CCn1cc(C(=O)O)c(=O)c2cc(F)c(N3CCNCC3)cc21 [NORFLOXACIN]
> 512 µg/mL: Klebsiella aerogenes [21]
128 µg/mL: Klebsiella aerogenes [5] | Klebsiella aerogenes [6] | Klebsiella aerogenes [12] | Klebsiella aerogenes [16] | Klebsiella aerogenes [20] | Klebsiella pneumoniae [27] | Klebsiella aerogenes [28] | Klebsiella aerogenes [39]
2 µg/mL: Klebsiella pneumoniae [4] | Klebsiella aerogenes [22] | Klebsiella pneumoniae [25] | Klebsiella pneumoniae [31]
0.5 µg/mL: Klebsiella pneumoniae [11]
512 µg/mL: Klebsiella aerogenes [1] | Klebsiella aerogenes [3] | Klebsiella aerogenes [7] | Klebsiella aerogenes [13] | Klebsiella aerogenes [17] | Klebsiella aerogenes [18] | Klebsiella aerogenes [35] | Klebsiella aerogenes [38] | Klebsiella aerogenes [40]
0.125 µg/mL: Klebsiella pneumoniae [29]
≤ 0.06 µg/mL: Klebsiella pneumoniae [36]
1 µg/mL: Klebsiella pneumoniae [24]
0.25 µg/mL: Klebsiella pneumoniae [19] | Klebsiella pneumoniae [26] | Klebsiella pneumoniae [34]
32 µg/mL: Klebsiella pneumoniae [32]
8 µg/mL: Klebsiella pneumoniae [15]
256 µg/mL: all other assays above

O=C(N[C@H](CO)[C@H](O)c1ccc([N+](=O)[O-])cc1)C(Cl)Cl [CHLORAMPHENICOL]
256 µg/mL: Klebsiella aerogenes [5] | Klebsiella aerogenes [37]
4 µg/mL: Klebsiella aerogenes [22] | Klebsiella pneumoniae [27] | Klebsiella pneumoniae [32]
128 µg/mL: Klebsiella aerogenes [8] | Klebsiella aerogenes [10] | Klebsiella aerogenes [18]
8 µg/mL: Klebsiella pneumoniae [2] | Klebsiella pneumoniae [25] | Klebsiella pneumoniae [36]
512 µg/mL: Klebsiella aerogenes [13] | Klebsiella aerogenes [14] | Klebsiella aerogenes [17] | Klebsiella aerogenes [40]
32 µg/mL: Klebsiella aerogenes [6] | Klebsiella pneumoniae [31] | Klebsiella pneumoniae [34] | Klebsiella aerogenes [39]
1020 µg/mL: Klebsiella aerogenes [7] | Klebsiella aerogenes [9] | Klebsiella aerogenes [21] | Klebsiella aerogenes [23] | Klebsiella aerogenes [30] | Klebsiella aerogenes [35] | Klebsiella aerogenes [41]
2 µg/mL: Klebsiella pneumoniae [11] | Klebsiella pneumoniae [19] | Klebsiella pneumoniae [26] | Klebsiella pneumoniae [29]
> 1020 µg/mL: Klebsiella aerogenes [38]
64 µg/mL: all other assays above

Source: ChEMBL document CHEMBL1649134, “Occurrence of efflux mechanism and cephalosporinase variant in a population of Enterobacter aerogenes and Klebsiella pneumoniae isolates producing extended-spectrum beta-lactamases” (2009)
